Source: the supplement of paper PMC11451515

Tested on: SEM cells
Experiment: cell viability relative to DMSO control; higher = less cytotoxic
Details: 48 h
Outline: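 Three leukemia lines were tested: NOMO1 and SEM at 500 cells/well and P12-Ichikawa at 1000 cells/well. Each was adapted for at least four passages in each medium and seeded in 5 μl in 1536-well plates, and library compounds in DMSO were pin-dosed from 47 μM to 0.79 nM in 11 threefold steps. After 48 h at 37°C, CellTiter-Glo One luminescence was read. Viability is a percentage relative to DMSO wells on each plate, with cell-free wells as background.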

[1] = HPLM + 10% dialyzed FBS, 0.000781 µM
[2] = HPLM + 10% dialyzed FBS, 0.00234 µM
[3] = HPLM + 10% dialyzed FBS, 0.00702 µM
[4] = HPLM + 10% dialyzed FBS, 0.0211 µM
[5] = HPLM + 10% dialyzed FBS, 0.0632 µM
[6] = HPLM + 10% dialyzed FBS, 0.19 µM
[7] = HPLM + 10% dialyzed FBS, 0.569 µM
[8] = HPLM + 10% dialyzed FBS, 1.71 µM
[9] = HPLM + 10% dialyzed FBS, 5.12 µM
[10] = HPLM + 10% dialyzed FBS, 15.4 µM
[11] = HPLM + 10% dialyzed FBS, 46.1 µM
[12] = RPMI 5 mM glucose + 10% FBS, 0.000781 µM
[13] = RPMI 5 mM glucose + 10% FBS, 0.00234 µM
[14] = RPMI 5 mM glucose + 10% FBS, 0.00702 µM
[15] = RPMI 5 mM glucose + 10% FBS, 0.0211 µM
[16] = RPMI 5 mM glucose + 10% FBS, 0.0632 µM
[17] = RPMI 5 mM glucose + 10% FBS, 0.19 µM
[18] = RPMI 5 mM glucose + 10% FBS, 0.569 µM
[19] = RPMI 5 mM glucose + 10% FBS, 1.71 µM
[20] = RPMI 5 mM glucose + 10% FBS, 5.12 µM
[21] = RPMI 5 mM glucose + 10% FBS, 15.4 µM
[22] = RPMI 5 mM glucose + 10% FBS, 46.1 µM
[23] = RPMI 5 mM glucose + 10% dialyzed FBS, 0.000781 µM
[24] = RPMI 5 mM glucose + 10% dialyzed FBS, 0.00234 µM
[25] = RPMI 5 mM glucose + 10% dialyzed FBS, 0.00702 µM
[26] = RPMI 5 mM glucose + 10% dialyzed FBS, 0.0211 µM
[27] = RPMI 5 mM glucose + 10% dialyzed FBS, 0.0632 µM
[28] = RPMI 5 mM glucose + 10% dialyzed FBS, 0.19 µM
[29] = RPMI 5 mM glucose + 10% dialyzed FBS, 0.569 µM
[30] = RPMI 5 mM glucose + 10% dialyzed FBS, 1.71 µM
[31] = RPMI 5 mM glucose + 10% dialyzed FBS, 5.12 µM
[32] = RPMI 5 mM glucose + 10% dialyzed FBS, 15.4 µM
[33] = RPMI 5 mM glucose + 10% dialyzed FBS, 46.1 µM

| SMILES | cell viability [1] | cell viability [2] | cell viability [3] | cell viability [4] | cell viability [5] | cell viability [6] | cell viability [7] | cell viability [8] | cell viability [9] | cell viability [10] | cell viability [11] | cell viability [12] | cell viability [13] | cell viability [14] | cell viability [15] | cell viability [16] | cell viability [17] | cell viability [18] | cell viability [19] | cell viability [20] | cell viability [21] | cell viability [22] | cell viability [23] | cell viability [24] | cell viability [25] | cell viability [26] | cell viability [27] | cell viability [28] | cell viability [29] | cell viability [30] | cell viability [31] | cell viability [32] | cell viability [33] |
| --- | --- | --- | --- | --- | --- | --- | --- | --- | --- | --- | --- | --- | --- | --- | --- | --- | --- | --- | --- | --- | --- | --- | --- | --- | --- | --- | --- | --- | --- | --- | --- | --- | --- |
| c1ccc(CCCN2CCN(CCOC(c3ccccc3)c3ccccc3)CC2)cc1 | 27.6% | 98.3% | 99.1% | 103% | 97.9% | 104% | 87.4% | 99.9% | 87.1% | 33.9% | 44.6% | 69.2% | 106% | 104% | 98% | 91.7% | 85.9% | 102% | 89% | 91% | 19.2% | 61.8% | 78.9% | 103% | 114% | 100% | 99.4% | 96% | 73% | 96.5% | 92.5% | 23% | 50.5% |
| CCN(CC)CCCCNc1ncc2cc(-c3cc(OC)cc(OC)c3)c(NC(=O)NC(C)(C)C)nc2n1 | 89.9% | 104% | 119% | 114% | 86.2% | 98.6% | 105% | 84% | 70.3% | 46.2% | 9.92% | 118% | 113% | 107% | 109% | 100% | 90.7% | 92.1% | 78.8% | 87% | 53.6% | 17% | 112% | 105% | 113% | 106% | 97.7% | 108% | 95.4% | 81% | 76.6% | 44.9% | 14.4% |
| COC(=O)C[C@](O)(CCCC(C)(C)O)C(=O)O[C@@H]1C(OC)=CC23CCCN2CCc2cc4c(cc2[C@H]13)OCO4 (some centres not stated) | 106% | 103% | 108% | 108% | 105% | 120% | 119% | 109% | 94.5% | 92.5% | 102% | 98.4% | 101% | 106% | 98.1% | 111% | 111% | 95.9% | 89.6% | 84.3% | 96.9% | 93.3% | 104% | 100% | 104% | 106% | 97.2% | 103% | 105% | 97.5% | 99.7% | 99.9% | 102% |
| CC(C)(C)NC(=O)Nc1cccc(Nc2ncc(F)c(NC(C)(C)CO)n2)c1 | 101% | 99.9% | 103% | 104% | 109% | 102% | 99.8% | 101% | 77.1% | 31.5% | 29.9% | 108% | 103% | 104% | 108% | 115% | 120% | 95.8% | 102% | 69.1% | 16.4% | 9.58% | 107% | 118% | 110% | 115% | 115% | 120% | 111% | 103% | 71.8% | 19.9% | 16% |
| CC(C)(C)OC(=O)N[C@H]1CCCCC/C=C\[C@@H]2C[C@@]2(C(=O)N[S+](=O)([O-])C2CC2)NC(=O)[C@@H]2C[C@@H](OC(=O)N3Cc4cccc(F)c4C3)CN2C1=O | 71.4% | 83.9% | 83.5% | 75.7% | 97.3% | 89% | 92.1% | 79.8% | 84% | 86.6% | 80.2% | 96.1% | 99.7% | 84.5% | 73.4% | 102% | 88.9% | 101% | 103% | 93.4% | 90.2% | 85.4% | 85.2% | 91.9% | 93.4% | 105% | 94.9% | 98.5% | 121% | 115% | 93% | 91.6% | 81.3% |
| C[C@@H]1COCCN1c1cc(C2([S@+](C)(=N)[O-])CC2)nc(-c2ccnc3[nH]ccc23)n1 | 90.4% | 100% | 98.5% | 77.8% | 102% | 93.4% | 95.3% | 40.6% | 21.5% | 21.5% | 14% | – | – | – | – | – | – | – | – | – | – | – | 81.8% | 96% | 114% | 74.4% | 130% | 102% | 66.3% | 42.4% | 24.8% | 20.6% | 10.7% |
